Earlier results, collected in US20100179202A1, “ORALLY DISINTEGRATING COMPOSITION OF ZOLMITRIPTAN” (AJANTA PHARMA LIMITED., priority 2009, published 2010).

Conditions: background description of the drug substance

CN(C)CCc1c[nH]c2ccc(C[C@H]3COC(=O)N3)cc12 [Zolmitriptan, (4S)-4-{[3-(2-dimethylaminoethyl)-1H-indol-5-yl]methyl}-1,3-oxazolidin-2-one]
solubility in water: readily soluble in water
